Results reported in US11242340B2, “Crystal forms of demethyleneberberine hydrochloride and preparation method therefor” (priority 2018, dated 2022).
Entries after “also recorded” stand apart in the source; their conditions may differ. Counter-ions that a name gives are not always drawn. Like-named read-outs stand apart in the source and are kept apart here.

Columns and labels:
[1] = Stability in strong light irradiation experiment (4,500 lx±500 lx); type: physicochemical; conditions: for Stability in the strong light irradiation environment: hydrochloride
From the text: Demethyleneberberine hydrochloride crystals A, B, C and D are taken in an appropriate amount and placed in plates numbered as A3, B3, C3 and D3 respectively, and then the plates are placed in a strong light irradiation environment at 4,500 lx±500 lx respectively for stability test.

[2] = Stability in high-humidity experiment (RH90±5%); type: physicochemical
From the text: Demethyleneberberine hydrochloride crystals A, B, C and D are taken in an appropriate amount and placed in plates numbered as A2, B2, C2 and D2 respectively, and then the plates are placed in a high-humidity environment at RH90±5% respectively for stability test.

[3] = Solubility in ethanol system at different temperatures, HPLC; type: physicochemical; conditions: FIG. 15, hydrochloride
Procedure: Demethyleneberberine hydrochloride crystals A, B, C and D are taken in an appropriate amount and the solubility of demethyleneberberine hydrochloride crystals A, B, C and D at different temperatures in an ethanol system is studied respectively. 20 μl of sample is taken at each temperature node and detected by HPLC.

[4] = Solubility in water system at different temperatures, HPLC; type: physicochemical; conditions: hydrochloride; for Solubility comparison of the four crystal forms (summary): summary over water, methanol and ethanol systems; for Solubility ranking among the four crystal forms: water system, different temperatures, FIG. 13
Procedure: Demethyleneberberine hydrochloride crystals A, B, C and D are taken in an appropriate amount and the solubility of demethyleneberberine hydrochloride crystals A, B, C and D at different temperatures in a water system is studied respectively. 20 μl of sample is taken at each temperature node and detected by HPLC.

[5] = Solubility in methanol system at different temperatures, HPLC; type: physicochemical; conditions: FIG. 14, hydrochloride
Procedure: Demethyleneberberine hydrochloride crystals A, B, C and D are taken in an appropriate amount and the solubility of demethyleneberberine hydrochloride crystals A, B, C and D at different temperatures in a methanol system is studied respectively. 20 μl of sample is taken at each temperature node and detected by HPLC.

[6] = Stability in high-temperature experiment (60±2° C.); type: physicochemical; conditions: for X-Ray Powder Diffraction / Content (%) / Content of Relevant Substance (%) / Stability in the high-temperature environment: 60±2° C.; for Stability in the high-temperature environment / Stability under stability test conditions (summary): hydrochloride; for Stability under stability test conditions (summary): summary over high temperature, high humidity and strong light irradiation
Procedure: Demethyleneberberine hydrochloride crystals A, B, C and D are taken in an appropriate amount and placed in plates numbered as A1, B1, C1 and D1 respectively, and then the plates are placed in a high-temperature environment at 60±2° C. respectively for stability test.

[7] = Determination of blood concentration in rats after ig administration; type: in vivo; conditions: ig 200 mg/kg, plasma; for AUC: calculated from the experimental results
Procedure: Male SD rats are adaptively bred for 3 days, and rats having (220±20) g body weight are selected and divided into 5 groups, namely, blank group, demethyleneberberine hydrochloride crystal form A group, demethyleneberberine hydrochloride crystal form B group, demethyleneberberine hydrochloride crystal form C group and demethyleneberberine hydrochloride crystal form D group. Food supply is stopped for 12 h for gastric emptying before the experiment. For the rats in the experimental groups, ig (intragastric) administration dosage is 200 mg/kg. 0.2 ml of blood is taken from the orbits of the rats at 5 min., 15 min., 30 min., 1 h, 2 h, 6 h and 12 h respectively after ig administration, the whole blood is centrifuged, and 100 μl of plasma is taken and frozen at −20° C. for use later. 100 μl of plasma sample is taken, 200 μl of methanol is added into the plasma sample, the mixture is vortexed for 5 min., and then centrifuged at 10,000 r/min. for 15 min. in a centrifuge; the supernatant is taken and tested by HPLC. […] Through calculation on the basis of the experimental results, it is determined: DAUC=3.675 μg×ml^−1×h>AAUC=1.247 μg×ml^−1×h>BAUC=1.150 μg×ml^−1×h>CAUC=1.077 μg×ml^−1×h.

[8] = day 0, listed as D3, hydrochloride
[9] = day 5, listed as D3, hydrochloride
[10] = day 10, listed as D3, hydrochloride
[11] = day 0, listed as D2, hydrochloride
[12] = day 5, listed as D2, hydrochloride
[13] = day 10, listed as D2, hydrochloride
[14] = day 0, listed as D1, hydrochloride
[15] = day 5, listed as D1, hydrochloride
[16] = day 10, listed as D1, hydrochloride
[17] = day 0, listed as A3, hydrochloride
[18] = day 5, listed as A3, hydrochloride
[19] = day 10, listed as A3, hydrochloride
[20] = day 0, listed as A2, hydrochloride
[21] = day 5, listed as A2, hydrochloride
[22] = day 10, listed as A2, hydrochloride
[23] = day 0, listed as A1, hydrochloride
[24] = day 5, listed as A1, hydrochloride
[25] = day 10, listed as A1, hydrochloride
[26] = day 0, listed as B3, hydrochloride
[27] = day 5, listed as B3, hydrochloride
[28] = day 10, listed as B3, hydrochloride
[29] = day 0, listed as B2, hydrochloride
[30] = day 5, listed as B2, hydrochloride
[31] = day 10, listed as B2, hydrochloride
[32] = day 0, listed as B1, hydrochloride
[33] = day 5, listed as B1, hydrochloride
[34] = day 10, listed as B1, hydrochloride

SMILES: COc1ccc2cc3[n+](cc2c1OC)CCc1cc(O)c(O)cc1-3 [crystal form D, demethyleneberberine hydrochloride]
- X-Ray Powder Diffraction ([1]; day 0): Unchanged
- Content (%) [1, 8]: 99.78%
- Content of Relevant Substance (%) [1, 8]: 0.22%
- X-Ray Powder Diffraction ([1]; day 5): Unchanged
- Content (%) [1, 9]: 99.58%
- Content of Relevant Substance (%) [1, 9]: 0.42%
- Content (%) [1, 10]: 99.64%
- Content of Relevant Substance (%) [1, 10]: 0.36%
- X-Ray Powder Diffraction [1, 10]: Changed
- Stability in the strong light irradiation environment [1]: unstable in the long-term strong light irradiation environment, and undergoes crystal transformation
- Stability in the high-humidity environment [2]: relatively stable
- X-Ray Powder Diffraction ([2]; day 0): Unchanged
- Content (%) [2, 11]: 99.48%
- Content of Relevant Substance (%) [2, 11]: 0.52%
- X-Ray Powder Diffraction ([2]; day 5): Unchanged
- Content (%) [2, 12]: 99.41%
- Content of Relevant Substance (%) [2, 12]: 0.59%
- X-Ray Powder Diffraction ([2]; day 10): Unchanged
- Content (%) [2, 13]: 99.32%
- Content of Relevant Substance (%) [2, 13]: 0.68%
- Solubility ranking among the four crystal forms [3]: solubility of crystal form A of demethyleneberberine hydrochloride>solubility of crystal form D
- Solubility comparison of the four crystal forms (summary) [4]: lowest; also recorded: solubility of crystal form A of demethyleneberberine hydrochloride>solubility of crystal form D
- Solubility ranking among the four crystal forms [4]: solubility of crystal form A of demethyleneberberine hydrochloride>solubility of crystal form D
- Solubility ranking among the four crystal forms [5]: solubility of crystal form A of demethyleneberberine hydrochloride>solubility of crystal form D
- X-Ray Powder Diffraction ([6]; day 0): Unchanged
- Content (%) [6, 14]: 99.78%
- Content of Relevant Substance (%) [6, 14]: 0.22%
- X-Ray Powder Diffraction ([6]; day 5): Unchanged
- Content (%) [6, 15]: 99.83%
- Content of Relevant Substance (%) [6, 15]: 0.17%
- Content (%) [6, 16]: 99.71%
- Content of Relevant Substance (%) [6, 16]: 0.29%
- X-Ray Powder Diffraction [6, 16]: Changed
- Stability in the high-temperature environment [6]: unstable in the long-term high-temperature environment, and undergoes crystal transformation
- Stability under stability test conditions (summary) [6]: tends to have crystal transformation under conditions such as high temperature and strong light irradiation
- AUC ([7]; male SD rats, hydrochloride): 3675 ng·h/mL
- Cmax ([7]; male SD rats, hydrochloride): 1234 ng/mL
- tmax ([7]; male SD rats, hydrochloride): 2 h

SMILES: COc1ccc2cc3[n+](cc2c1OC)CCc1cc(O)c(O)cc1-3 [crystal form A, demethyleneberberine hydrochloride]
- X-Ray Powder Diffraction ([1]; day 0): Unchanged
- Content (%) [1, 17]: 99.62%
- Content of Relevant Substance (%) [1, 17]: 0.38%
- X-Ray Powder Diffraction ([1]; day 5): Unchanged
- Content (%) [1, 18]: 99.61%
- Content of Relevant Substance (%) [1, 18]: 0.39%
- Content (%) [1, 19]: 99.60%
- Content of Relevant Substance (%) [1, 19]: 0.40%
- X-Ray Powder Diffraction [1, 19]: Unchanged
- Stability in the strong light irradiation environment [1]: relatively stable
- Stability in the high-humidity environment [2]: relatively stable
- X-Ray Powder Diffraction ([2]; day 0): Unchanged
- Content (%) [2, 20]: 99.62%
- Content of Relevant Substance (%) [2, 20]: 0.38%
- X-Ray Powder Diffraction ([2]; day 5): Unchanged
- Content (%) [2, 21]: 99.58%
- Content of Relevant Substance (%) [2, 21]: 0.42%
- X-Ray Powder Diffraction ([2]; day 10): Unchanged
- Content (%) [2, 22]: 99.60%
- Content of Relevant Substance (%) [2, 22]: 0.40%
- Solubility ranking among the four crystal forms [3]: >solubility of crystal form D of demethyleneberberine hydrochloride
- Solubility comparison of the four crystal forms (summary) [4]: >solubility of crystal form D of demethyleneberberine hydrochloride
- Solubility ranking among the four crystal forms [4]: >solubility of crystal form D of demethyleneberberine hydrochloride
- Solubility ranking among the four crystal forms [5]: >solubility of crystal form D of demethyleneberberine hydrochloride
- X-Ray Powder Diffraction ([6]; day 0): Unchanged
- Content (%) [6, 23]: 99.62%
- Content of Relevant Substance (%) [6, 23]: 0.38%
- X-Ray Powder Diffraction ([6]; day 5): Unchanged
- Content (%) [6, 24]: 99.63%
- Content of Relevant Substance (%) [6, 24]: 0.37%
- Content (%) [6, 25]: 99.61%
- Content of Relevant Substance (%) [6, 25]: 0.39%
- X-Ray Powder Diffraction [6, 25]: Unchanged
- Stability in the high-temperature environment [6]: relatively stable
- Stability under stability test conditions (summary) [6]: stable
- AUC ([7]; male SD rats, hydrochloride): 1247 ng·h/mL
- Cmax ([7]; male SD rats, hydrochloride): 292 ng/mL

SMILES: COc1ccc2cc3[n+](cc2c1OC)CCc1cc(O)c(O)cc1-3 [crystal form B, demethyleneberberine hydrochloride]
- X-Ray Powder Diffraction ([1]; day 0): Unchanged
- Content (%) [1, 26]: 99.58%
- Content of Relevant Substance (%) [1, 26]: 0.42%
- X-Ray Powder Diffraction ([1]; day 5): Unchanged
- Content (%) [1, 27]: 99.77%
- Content of Relevant Substance (%) [1, 27]: 0.23%
- Content (%) [1, 28]: 99.67%
- Content of Relevant Substance (%) [1, 28]: 0.33%
- X-Ray Powder Diffraction [1, 28]: Unchanged
- Stability in the strong light irradiation environment [1]: relatively stable
- Stability in the high-humidity environment [2]: relatively stable
- X-Ray Powder Diffraction ([2]; day 0): Unchanged
- Content (%) [2, 29]: 99.58%
- Content of Relevant Substance (%) [2, 29]: 0.42%
- X-Ray Powder Diffraction ([2]; day 5): Unchanged
- Content (%) [2, 30]: 99.60%
- Content of Relevant Substance (%) [2, 30]: 0.40%
- X-Ray Powder Diffraction ([2]; day 10): Unchanged
- Content (%) [2, 31]: 99.56%
- Content of Relevant Substance (%) [2, 31]: 0.44%
- Solubility ranking among the four crystal forms [3]: >solubility of crystal form A of demethyleneberberine hydrochloride
- Solubility comparison of the four crystal forms (summary) [4]: >solubility of crystal form A of demethyleneberberine hydrochloride
- Solubility ranking among the four crystal forms [4]: >solubility of crystal form A of demethyleneberberine hydrochloride
- Solubility ranking among the four crystal forms [5]: >solubility of crystal form A of demethyleneberberine hydrochloride
- X-Ray Powder Diffraction ([6]; day 0): Unchanged
- Content (%) [6, 32]: 99.82%
- Content of Relevant Substance (%) [6, 32]: 0.18%
- X-Ray Powder Diffraction ([6]; day 5): Unchanged
- Content (%) [6, 33]: 99.62%
- Content of Relevant Substance (%) [6, 33]: 0.38%
- Content (%) [6, 34]: 99.67%
- Content of Relevant Substance (%) [6, 34]: 0.33%
- X-Ray Powder Diffraction [6, 34]: Unchanged
- Stability in the high-temperature environment [6]: relatively stable
- Stability under stability test conditions (summary) [6]: stable
- AUC ([7]; male SD rats, hydrochloride): 1150 ng·h/mL
- Cmax ([7]; male SD rats, hydrochloride): 642 ng/mL
- tmax ([7]; male, SD, rat, po, 200 mg/kg, read-out: tmax): 1 h
